In patent US7855290B2, “Pyridine derivatives and pyrimidine derivatives (3)” (Eisai R&D Management Co., Ltd., priority 2005, dated 2010):
pIC50: −log10 of the molar value.

What was measured:
[1] = system: Human umbilical vein endothelial cells (HUVECs); assay: Inhibitory activity against the growth of vascular endothelial cells stimulated with hepatocyte growth factor; assay type: cell-based; conditions: HUVEC, HGF stimulated, third day, Cell Counting Kit-8, read-out: IC50 (cell proliferation activity)
Experimental: Human umbilical vein endothelial cells (HUVECs) were isolated according to the reported method (Shin Seikagaku Jikken Koza, “Cell culturing techniques”, p 197-202), and then cultured in a 5% CO2 incubator (37° C.) using EGM-2 medium (purchased from Clonetics) until the cells reached confluency.
HUVECs were suspended in a serum-free medium for endothelial cell culture (SFM, purchased from GIBCO RBL) containing 2% FBS. The cell suspension (2×10^4 cells/ml) was put in a cell culturing 96-well plate (purchased from NUNC, Production No. 167008) at 0.1 ml/well, and then cultured in a 5% CO2 incubator (37° C.) overnight. After the culture, each well was supplied with 50 μl of the test substance diluted with a 2% FBS-containing serum-free medium for endothelial cell culture and 50 μl of HGF (purchased from R&D) diluted at a concentration of 120 ng/ml with a 2% FBS-containing serum-free medium for endothelial cell culture, followed by culturing in a 5% CO2 incubator (37° C.). On the third day after the addition of the test substance, each well was supplied with 10 μl of Cell Counting Kit-8 (purchased from DOJINDO, Production No. 343-07623), and then the plate was incubated in a 5% CO2 incubator (37° C.) for about 2 hours. After the incubation, using a Plate Reader MTP-500 (Corona Electric), the absorbance of each well was determined at a measurement wavelength of 450 nm and a reference wavelength of 660 nm. While defining the absorbance of a well supplied with HGF and no test substance as 100% cell proliferation activity and the absorbance of the well supplied with no test substance and no HGF as 0% cell proliferation activity, the cell proliferation activity ratio (%) was calculated for each cell.

[2] = system: Human gastric cancer cells (MKN-45); assay: Inhibitory activity against the tumor growth of human gastric cancer cells (MKN-45) transplanted in nude mice; assay type: in vivo, BALB/c (nu/nu) mice; conditions: orally twice every day, tumor volume at fifth day, relative to control group
Experimental: Human gastric cancer cells (MNK-45) were suspended in HBSS (purchased from GIBCO BRL). The cell suspension (5×10^7 cells/ml) was transplanted under the right flank skin of seven-week-old female BALB/c (nu/nu) mice at a volume of 0.1 ml. When tumor volume of the site transplanted with MNK-45 cells grew to 100-200 mm^3, mice were grouped so that the groups might be equalized in average tumor volume. The test substance was suspended in 0.5% methylcellulose, a mixed solution of hydrochloric acid and glucose (0.1N hydrochloric acid:5% glucose=1:9) or a mixed solution of dimethyl sulfoxide-Tween-glucose (dimethyl sulfoxide:Tween 80:5% glucose (containing equimolar hydrochloric acid to the test substance)=7:13:80), were administered orally to the mice twice every day. The tumor volumes were determined at the fifth day after the initiation of the administration of the test substances. The major axis and the minor axis of tumor were measured by a caliper to calculate ½×(major axis×minor axis×minor axis) for the tumor volume. The experiment was conducted using 10 mice in the control group (solvent-administered group) and 5 mice in test substance-administered group. The ratio in tumor volume of the group for administrating the test substance relative to that of the control group was defined as a tumor proliferation rate (%).

Structure (SMILES): O=C(Nc1cc(Oc2ccc(NC(=O)C3(C(=O)Nc4ccc(F)cc4)CC3)c(F)c2)ccn1)N1CCC(N2CCC2)CC1 [Example 9, N-{4-[(2-{[(4-Azetidin-1-ylpiperidin-1-yl)carbonyl]amino}pyridin-4-yl)oxy]-2-fluorophenyl}-N′-(4-fluorophenyl)cyclopropane-1,1-dicarboxamide]
- pIC50 [1]: 7.60

Structure (SMILES): CN1CC(N2CCN(C(=O)Nc3cc(Oc4ccc(NC(=O)C5(C(=O)Nc6ccc(F)cc6)CC5)c(F)c4)ccn3)CC2)C1 [Example 17]
- pIC50 [1]: 7.77

Structure (SMILES): CN(C)C1CN(C2CCN(C(=O)Nc3cc(Oc4ccc(NC(=O)C5(C(=O)Nc6ccc(F)cc6)CC5)c(F)c4)ccn3)CC2)C1 [Example 14, N-[4-({2-[({4-[3-(Dimethylamino)azetidin-1-yl]piperidin-1-yl}carbonyl)amino]pyridin-4-yl}oxy)-2-fluorophenyl]-N′-(4-fluorophenyl)cyclopropane-1,1-dicarboxamide]
- pIC50 [1]: 7.64

Structure (SMILES): CN1CCC(N(C)C(=O)Nc2cc(Oc3ccc(NC(=O)C4(C(=O)Nc5ccc(F)cc5)CC4)c(F)c3)ccn2)CC1 [Example 3, N-(2-Fluoro-4-{[2-({[methyl(1-methylpiperidin-4-yl)amino]carbonyl}amino)pyridin-4-yl]oxy}phenyl)-N′-(4-fluorophenyl)cyclopropane-1,1-dicarboxamide]
- pIC50 [1]: 7.89

Structure (SMILES): CN1CCC(N(C)C(=O)Nc2cc(Oc3ccc(NC(=O)C4(C(=O)Nc5ccc(F)cc5)CC4)cc3)ccn2)CC1 [Example 12]
- pIC50 [1]: 7.64
- Tumor proliferation rate (%) ([2]; Dose 30 mg/kg/time): 73.9%
- Tumor proliferation rate (%) ([2]; Dose 100 mg/kg/time): 27.6%

Structure (SMILES): CN(C)C1CN(C2CCN(C(=O)Nc3cc(Oc4ccc(NC(=O)C5(C(=O)Nc6ccc(F)cc6)CC5)cc4F)ccn3)CC2)C1 [Example 21, N-[4-({2-[({4-[3-(Dimethylamino)azetidin-1-yl]piperidin-1-yl}carbonyl)amino]pyridin-4-yl}oxy)-3-fluorophenyl]-N′-(4-fluorophenyl)cyclopropane-1,1-dicarboxamide]
- pIC50 [1]: 7.62

Structure (SMILES): CN(C)CC1CCN(C(=O)Nc2cc(Oc3ccc(NC(=O)C4(C(=O)Nc5ccc(F)cc5)CC4)c(F)c3)ccn2)CC1 [Example 8, N-[4-({2-[({4-[(Dimethylamino)methyl]piperidin-1-yl}carbonyl)amino]pyridin-4-yl}oxy)-2-fluorophenyl]-N′-(4-fluorophenyl)cyclopropane-1,1-dicarboxamide]
- Tumor proliferation rate (%) ([2]; Dose 30 mg/kg/time): 53%
- Tumor proliferation rate (%) ([2]; Dose 100 mg/kg/time): 23.3%

Structure (SMILES): CN(C)CCN1CCN(C(=O)Nc2cc(Oc3ccc(NC(=O)C4(C(=O)Nc5ccc(F)cc5)CC4)c(F)c3)ccn2)CC1 [Example 2, N-[4-({2-[({4-[2-(Dimethylamino)ethyl]piperazin-1-yl}carbonyl)amino]pyridin-4-yl}oxy)-2-fluorophenyl]-N′-(4-fluorophenyl)cyclopropane-1,1-dicarboxamide]
- pIC50 [1]: 7.74
- Tumor proliferation rate (%) ([2]; Dose 30 mg/kg/time): 73.3%
- Tumor proliferation rate (%) ([2]; Dose 100 mg/kg/time): 27.5%

Structure (SMILES): CN(C)CCN1CCN(C(=O)Nc2cc(Oc3ccc(NC(=O)C4(C(=O)Nc5ccc(F)cc5)CC4)cc3F)ccn2)CC1 [Example 7, N-[4-({2-[({4-[2-(Dimethylamino)ethyl]piperazin-1-yl}carbonyl)amino]pyridin-4-yl}oxy)-3-fluorophenyl]-N′-(4-fluorophenyl)cyclopropane-1,1-dicarboxamide]
- pIC50 [1]: 7.74

Structure (SMILES): CN1CCC(N(C)C(=O)Nc2cc(Oc3ccc(NC(=O)C4(C(=O)Nc5ccc(F)cc5)CC4)cc3F)ccn2)CC1 [Example 1, N-(3-Fluoro-4-{[2-({[methyl(1-methylpiperidin-4-yl)amino]carbonyl}amino)pyridin-4-yl]oxy}phenyl)-N′-(4-fluorophenyl)cyclopropane-1.1-dicarboxamide]
- pIC50 [1]: 8.34

Structure (SMILES): O=C(Nc1cc(Oc2ccc(NC(=O)C3(C(=O)Nc4ccc(F)cc4)CC3)cc2F)ccn1)N1CCC(N2CCC2)CC1 [Example 11, N-{4-[(2-{[(4-Azetidin-1-ylpiperidin-1-yl)carbonyl]amino}pyridin-4-yl)oxy]-3-fluorophenyl}-N′-(4-fluorophenyl)cyclopropane-1,1-dicarboxamide]
- pIC50 [1]: 7.48
